From paper PMC10250618, “Synthesis, structure-activity relationships and biological evaluation of benzimidazole derived sulfonylurea analogues as a new class of antagonists of P2Y1 receptor” (Frontiers in Pharmacology, 2023)
≈ marks a conversion by molar mass, not a printed value. Counter-ions that a name gives are not always drawn. Like-named read-outs stand apart in the source and are kept apart here.

Columns and labels:
[1] = was reported; cited from earlier work
[2] = target: hP2Y1; parameters: method as in Peng et al., 2018; conditions: Figure 1, reported antagonist; ref Peng et al., 2018; cited from earlier work
[3] = tested on: P2X3; parameters: method as in Bae et al., 2022; conditions: Figure 1, reported antagonist; ref Bae et al., 2022; cited from earlier work
[4] = tested on: P2Y12; parameters: method as in Oestreich, 2010; Boldron et al., 2014; conditions: Figure 1, reported antagonists; ref Oestreich, 2010; Boldron et al., 2014; cited from earlier work
[5] = MTT assay, HEK-293; format: cell-based; conditions: human, HEK-293 cells; at 50 µM; triplicate; read-out: HEK-293 Cell Line (%cytotoxicity ±SEM)
[6] = target: T1, t-P2Y1 (Meleagris gallopavo, UniProt P49652); assay: Calcium mobilization assay, t-P2Y1 transfected 1321N1 astrocytoma cells; format: cell-based; conditions: for inhibition at 100 µM: 1321-N1, final conc of 100 μM
T1 construct: host or cells: human 1321N1 astrocytoma cells, stably transfected
Experimental: (§1) Dr. Gary A. Weisman provided human-1321N1 astrocytoma cells that had been transfected by the tP2Y1R, hP2Y2R, hP2Y4R, and rP2Y6R and untransfected 1321N1 astrocytoma cells (University of Missouri Mo., Bond Life Science Center). The DMEM Dulbecco’s Modified Eagle -Medium (Gibco) was added in flasks to cultivate the cell line. 10% of the Fetal bovine serum was also added to the media together with 500 μg/mL of Geneticin (G418) and 1% of the Pen/Strep. The cells in T-75 flask were then cultured and incubated in a CO2 incubator which was maintained at (5%) and 37°C temperature until 90% of the cells were confluent. Throughout the experiment, cells were periodically checked for the confluency and strictly watched for the microbial contamination.
(§2) The FLUOstar Galaxy (BMG LABTECH GmbH, Ortenberg, Germany) microplate reader with two injectors was used to measure the Ca^2+ fluorescence of synthetic compounds. For this assay, 1321N1 transfected cells (t-P2Y1, h-P2Y2, h-P2Y4, and r-P2Y6) were cultured in T-75 flask. When cells reached the confluency of 80%–90%, they were washed with PBS and then Trypsin was added. After trypsinization for 3 min, 20,000 cells/well were allowed to seed in a black wall and 96 well clear bottom plate which was coated with Poly-D-Lysine and allowed to incubate for 24 h in 37°C, 5% CO2 incubator. After incubation, 200 μL culture media was changed with 100 μL HBSS containing Fura-2 AM which is calcium chelating dye and allowed the plate to incubate for 45 min in dark at temp of 37°C in incubator which is maintained with carbon dioxide (5% CO2). After incubation for 45 min, synthesized molecules were added to HBSS washed cells in each well of 96 well plate and re-incubated for 30 min at 37°C. In next step, injection of the endogenous ligand such as ADP through the injector was followed by excitation and emission measurements of Fura-2 AM at 380/520 nm and 340/520. Final volume of the assay per well 200 μL. IC50 values were computed for the compounds displaying more than 50% of activity using Prism 5.0 software (Graph Pad., Inc., San Diego. California, United States) by using analysis i.e., nonlinear regression ([Kassack et al., 2002]; [Ullmann et al., 2005]).

[7] = target: T2, h-P2Y4 (Homo sapiens, UniProt P51582); assay: Calcium mobilization assay, h-P2Y4 transfected 1321N1 astrocytoma cells; format: cell-based; conditions: for IC50: Ca2+ mobilization inhibition, transfected 1321N1 cells, read-out: IC50 ± SEM h-P2Y4
T2 construct: host or cells: human 1321N1 astrocytoma cells, stably transfected
Experimental: as §1, §2

[8] = target: T3, h-P2Y2 (Homo sapiens, UniProt P41231); assay: Calcium mobilization assay, h-P2Y2 transfected 1321N1 astrocytoma cells; format: cell-based; conditions: for inhibition at 100 µM: 1321-N1, final conc of 100 μM
T3 construct: host or cells: human 1321N1 astrocytoma cells, stably transfected
Experimental: as §1, §2

[9] = MTT assay, non-transfected 1321N1 astrocytoma cells; format: cell-based, human; conditions: human, non-transfected 1321N1 astrocytoma cells; at 50 µM; non-transfected astrocytoma 1321N1 cells; triplicate; read-out: H-1321N1 Cell Line (%cytotoxicity ±SEM)
Experimental: A 96-well plate was used to plate 20,000 human 1321N1 astrocytoma cells and allowed for incubation for 24 h at temp of 37°C in CO2 (5%) incubator. Next to this, the prepared culture media was changed to media which was free from FBS, the test compounds were added and the incubation process was repeated. After incubation of 24 h, the serum free media from the wells was discarded, and 100 μL of the reagent i.e., MTT reagent was pipetted. Plate was then additionally incubated at 37°C for 4 h. Utilizing a microplate reader, absorbance was determined at 570 nm and 630 nm for calculation of cell viability (FLUOstarOmega Microplate Reader-BMG LABTECH GmbH, Ortenberg, Germany) ([Sauer et al., 2009]).

[10] = MTT assay, HeLa; format: cell-based; conditions: human, HeLa cells; at 50 µM; triplicate; read-out: HeLa Cell Line (%cytotoxicity ±SEM)
[11] = Aqueous solubility assay (UV absorption); format: physicochemical
Experimental: In eppendorf tubes, over-saturated chemical solutions were prepared by mixing synthesized compound with PBS buffer (pH 7.4). To confirm compound saturation, suspensions were rapidly vortexed for 1 min, sonicated at ambient temperature for 10 min, and then incubated with overnight shaking. After that, compound suspensions were centrifuged at 15,000 RPM for 20 min. Supernatants were cautiously taken out of the tubes and filtered once more using 0.22 µm syringe filters. By using UV-vis absorption spectrometry with standard curves and an already-determined absorption extinction coefficient in the same buffer, the concentrations of the drug in the supernatants were identified.

[12] = target: T4, r-P2Y6 (Rattus norvegicus, UniProt Q63371); assay: Calcium mobilization assay, r-P2Y6 transfected 1321N1 astrocytoma cells; format: cell-based; conditions: for inhibition at 100 µM: 1321-N1, final conc of 100 μM
T4 construct: host or cells: human 1321N1 astrocytoma cells, stably transfected
Experimental: as §1, §2

[13] = Ca2+ mobilization inhibition, transfected 1321N1 cells, 100 μM ADP, read-out: IC50 ± SEM t-P2Y1
[14] = Ca2+ mobilization inhibition, transfected 1321N1 cells, 500 μM ATP, read-out: IC50 ± SEM h-P2Y2
[15] = Ca2+ mobilization inhibition, transfected 1321N1 cells, 100 μM of UDP, read-out: IC50 ± SEM r-P2Y6
[16] = 1321-N1, final conc of 100 μM, 500 μM UTP, read-out: % Inhibition h-P2Y4

T2 sequence (P51582 whole entry): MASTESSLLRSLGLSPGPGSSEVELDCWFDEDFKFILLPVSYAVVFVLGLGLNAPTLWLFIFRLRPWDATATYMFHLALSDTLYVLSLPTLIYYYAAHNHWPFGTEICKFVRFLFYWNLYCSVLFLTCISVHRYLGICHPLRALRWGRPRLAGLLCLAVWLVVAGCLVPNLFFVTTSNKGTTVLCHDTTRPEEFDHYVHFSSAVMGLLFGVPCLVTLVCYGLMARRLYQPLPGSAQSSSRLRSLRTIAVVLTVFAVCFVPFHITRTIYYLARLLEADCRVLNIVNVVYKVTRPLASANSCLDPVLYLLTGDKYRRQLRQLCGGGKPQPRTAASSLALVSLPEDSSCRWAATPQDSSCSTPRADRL
T1 sequence (P49652 whole entry): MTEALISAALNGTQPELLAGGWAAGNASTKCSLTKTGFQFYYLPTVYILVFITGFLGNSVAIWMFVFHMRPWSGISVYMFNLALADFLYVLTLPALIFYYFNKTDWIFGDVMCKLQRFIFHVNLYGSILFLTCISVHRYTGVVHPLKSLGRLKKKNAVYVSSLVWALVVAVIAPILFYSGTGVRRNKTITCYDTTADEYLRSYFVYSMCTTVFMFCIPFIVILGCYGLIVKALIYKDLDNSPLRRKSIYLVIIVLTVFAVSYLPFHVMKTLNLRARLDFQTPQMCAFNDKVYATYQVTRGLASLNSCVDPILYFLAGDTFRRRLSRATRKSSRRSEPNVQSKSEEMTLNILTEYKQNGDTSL
T3 sequence (P41231 whole entry): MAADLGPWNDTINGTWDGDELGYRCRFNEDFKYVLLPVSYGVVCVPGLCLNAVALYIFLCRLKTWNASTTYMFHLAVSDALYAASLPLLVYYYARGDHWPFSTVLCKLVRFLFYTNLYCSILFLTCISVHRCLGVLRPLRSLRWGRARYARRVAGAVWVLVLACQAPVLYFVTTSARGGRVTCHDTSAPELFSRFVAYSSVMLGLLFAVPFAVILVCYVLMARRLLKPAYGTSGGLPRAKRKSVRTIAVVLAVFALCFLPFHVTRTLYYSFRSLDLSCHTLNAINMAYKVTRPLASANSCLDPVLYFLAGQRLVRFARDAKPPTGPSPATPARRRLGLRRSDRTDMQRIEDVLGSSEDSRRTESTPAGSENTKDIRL
T4 sequence (Q63371 whole entry): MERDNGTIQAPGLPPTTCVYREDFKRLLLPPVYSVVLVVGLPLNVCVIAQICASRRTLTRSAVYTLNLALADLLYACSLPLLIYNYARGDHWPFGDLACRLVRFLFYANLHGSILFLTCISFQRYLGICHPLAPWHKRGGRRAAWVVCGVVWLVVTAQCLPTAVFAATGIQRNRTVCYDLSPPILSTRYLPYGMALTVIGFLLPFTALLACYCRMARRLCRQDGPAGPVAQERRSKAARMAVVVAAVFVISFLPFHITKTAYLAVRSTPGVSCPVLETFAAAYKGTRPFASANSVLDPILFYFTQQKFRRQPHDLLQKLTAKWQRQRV

SMILES | cytotoxicity at 24 h, 50 µM [5] [%] | melting point [°C] | cytotoxicity at 24 h, 50 µM [9] [%] | cytotoxicity at 24 h, 50 µM [10] [%] | inhibition at 100 µM ([12]; 100 μM of UDP) [%] | inhibition at 100 µM ([6]; 100 μM ADP) [%] | inhibition at 100 µM [7, 16] [%] | inhibition at 100 µM ([8]; 500 μM ATP) [%] | further results
CC(C)(C)c1ccccc1Oc1ncccc1NC(=O)Nc1ccc(OC(F)(F)F)cc1 [BPTU, 1-(2-(2-tert-butyl-phenoxy)pyridin-3-yl)-3–4-(trifluoromethoxy) phenylurea] | – | – | – | – | – | – | – | – | solubility in water [1]: less than 0.1 mg/mL; Ki [2]: 0.006 µM
Cc1nc2c([nH]1)C(=O)C(Cl)=C(Nc1ccc(F)c(F)c1)C2=O [KCB77033] | – | – | – | – | – | – | – | – | IC50 [3]: 1.03 µM
CNc1cc2[nH]c(=O)n(-c3ccc(NC(=O)NS(=O)(=O)c4ccc(Cl)s4)cc3)c(=O)c2cc1F [Elinogrel] | – | – | – | – | – | – | – | – | IC50 [4]: 0.02 µM
Nc1nc2cc(Cl)ccc2n1C(=O)NS(=O)(=O)c1cc(Cl)cc(Cl)c1O [1h, 2-Amino-5-chloro-N-((3,5-dichloro-2-hydroxyphenyl)sulfonyl)-1H-benzo [d]imidazole-1-carboxamide] | 27.4 ± 1.2 | 124 to 126 | 32.8 ± 0.7 | 22.3 ± 0.8 | 34 | – | – | – | IC50 [6, 13]: 0.19 ± 0.04 µM; inhibition of P2Y2 less as compared to P2Y1 ([6]; P2Y2 versus P2Y1): 20 fold; IC50 ([7]; 500 μM UTP): 0.91 ± 0.04 µM; IC50 [8, 14]: 4.13 ± 1.02 µM; solubility ([11]; Figure 7, UV absorption at 384 nm): 287 µg/mL (≈ 659 µM); solubility ([11]; aqueous buffer, thermodynamic from solid, PBS buffer (pH 7.4), UV absorption spectroscopy, read-out: aqueous solubility): 287 µg/mL (≈ 659 µM); activity against P2Y6 in words [12]: inactive
O=C(NS(=O)(=O)c1ccc(Cl)cc1)n1c(Cl)nc2ccccc21 [1s, 2-Chloro-N-((4-chlorophenyl)sulfonyl)-1H-benzo [d]imidazole-1-carboxamide] | 12.1 ± 0.7 | 180 to 182 | 14.4 ± 0.2 | 19.5 ± 0.2 | – | – | – | – | IC50 [6, 13]: 3.11 ± 0.23 µM; IC50 ([7]; 500 μM UTP): 2.67 ± 0.07 µM; IC50 [8, 14]: 6.15 ± 1.08 µM; IC50 [12, 15]: 12.7 ± 1.02 µM
Cc1ccc(S(=O)(=O)NC(=O)n2c(N)nc3cc([N+](=O)[O-])ccc32)cc1 [1b, 2-Amino-5-nitro-N-tosyl-1H-benzo [d]imidazole-1-carboxamide] | 21.3 ± 0.2 | 113 to 115 | 17.3 ± 0.8 | 21.6 ± 0.2 | 21 | 33 | 18 | 38 | –
Cc1ccc([N+](=O)[O-])cc1S(=O)(=O)NC(=O)n1c(N)nc2cc([N+](=O)[O-])ccc21 [1c, 2-Amino-N-((2-methyl-5-nitrophenyl)sulfonyl)-5-nitro-1H-benzo [d]imidazole-1-carboxamide] | 19.5 ± 0.4 | 117 to 119 | 21.1 ± 0.6 | 26.4 ± 0.7 | – | – | – | – | IC50 [6]: 11.11 ± 0.04 µM; inhibition at 100 µM ([7]; 1321-N1, read-out: % Inhibition h-P2Y4): 42%; IC50 [8]: 6.32 ± 1.1 µM; IC50 [12]: 16.1 ± 0.59 µM
COc1nc2ccccc2n1C(=O)NS(=O)(=O)c1ccc(Cl)cc1 [1v, N-((4-chlorophenyl)sulfonyl)-2-methoxy-1H-benzo [d]imidazole-1-carboxamide] | 12.2 ± 0.7 | 152 to 154 | 19.7 ± 0.1 | 24.1 ± 0.3 | 19 | 42 | 23 | 19 | –
O=C(NS(=O)(=O)c1ccc([N+](=O)[O-])cc1)n1c(-c2ccccc2)nc2ccccc21 [1o, N-((4-nitrophenyl)sulfonyl)-2-phenyl-1H-benzo [d]imidazole-1-carboxamide] | 27.9 ± 0.8 | 162 to 164 | 24.3 ± 0.8 | 24.3 ± 0.4 | 32 | 46 | 46 | – | IC50 [8, 14]: 18.2 ± 0.77 µM
CCCC(=O)c1cnn(-c2ccc(NC(=O)c3cn(CC(=O)N4CCNCC4)c4ccc(Cl)cc34)nn2)c1C [SAR 216471 hydrochloride] | – | – | – | – | – | – | – | – | IC50 [4]: 0.017 µM
Nc1nc2ccccc2n1C(=O)NS(=O)(=O)c1cc(Cl)cc(Cl)c1O [1e, 2-Amino-N-((3,5-dichloro-2-hydroxyphenyl)sulfonyl)-1H-benzo [d]imidazole-1-carboxamide] | 16.3 ± 0.2 | 115 to 117 | 39.9 ± 0.2 | 21.3 ± 0.6 | – | – | – | – | IC50 [6, 13]: 0.46 ± 0.01 µM; IC50 ([7]; 500 μM UTP): 0.6 ± 0.01 µM; IC50 [8, 14]: 5.5 ± 1.21 µM; IC50 [12, 15]: 0.75 ± 0.08 µM
O=C(NS(=O)(=O)c1ccc(-c2ccccc2)cc1)n1c(-c2ccccc2)nc2ccccc21 [1l, N-([1.1′-biphenyl]-4-ylsulfonyl)-2-phenyl-1H-benzo [d]imidazole-1-carboxamide] | 21.3 ± 0.6 | 133 to 135 | 47.2 ± 0.4 | 28.3 ± 1.2 | 43 | 27 | 22 | 34 | –
COc1ccc(S(=O)(=O)NC(=O)n2c(OC)nc3ccccc32)cc1 [1u, 2-Methoxy-N-((4-methoxyphenyl)sulfonyl)-1H-benzo [d]imidazole-1-carboxamide] | 32.2 ± 0.9 | 177 to 179 | 25.5 ± 0.3 | 21.7 ± 0.6 | 18 | 31 | 30 | 10 | –
Cc1ccc([N+](=O)[O-])cc1S(=O)(=O)NC(=O)n1c(N)nc2cc(Cl)ccc21 [1j, 2-Amino-5-chloro-N-((2-methyl-5-nitrophenyl)sulfonyl)-1H-benzo [d]imidazole-1-carboxamide] | 38.2 ± 0.4 | 144 to 146 | 44.3 ± 0.6 | 26.1 ± 0.7 | – | – | 42 | 32 | IC50 [6, 13]: 13.4 ± 0.22 µM; IC50 [12, 15]: 25.4 ± 3.1 µM
